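Briefly, cells in 96-well plates were exposed to five compound concentrations for 48 h, and endpoints were estimated by linear interpolation. At the GI50, growth is halved. The concentration for full growth arrest is given as TGI.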
Columns and labels:
Experiment in all cases: NCI-60 cell line screen, 48 h
OVCAR-8 ovarian = system: OVCAR-8 ovarian
UO-31 renal = system: UO-31 renal
NCI-H23 lung = system: NCI-H23 lung
A498 renal = system: A498 renal
HT29 colon = system: HT29 colon
CAKI-1 renal = system: CAKI-1 renal
HOP-62 NSCLC = system: HOP-62 NSCLC
SN12C renal = system: SN12C renal
MOLT-4 leukemia = system: MOLT-4 leukemia
MCF7 breast = system: MCF7 breast

COc1cccc2c1C(=O)OC2c1cccc2ccccc12 (stereo unspecified)
TGI (OVCAR-8 ovarian): > 100 µM | TGI (UO-31 renal): > 100 µM | TGI (NCI-H23 lung): > 100 µM | TGI (A498 renal): > 100 µM | TGI (HT29 colon): > 100 µM | TGI (CAKI-1 renal): > 100 µM | TGI (HOP-62 NSCLC): 62.4 µM | TGI (SN12C renal): > 100 µM | TGI (MOLT-4 leukemia): > 100 µM | TGI (MCF7 breast): > 100 µM

N#Cc1c(N)nc(NCc2ccccc2)c(C#N)c1-c1ccc(Cl)cc1Cl
GI50 (OVCAR-8 ovarian): > 67 µM | TGI (OVCAR-8 ovarian): > 100 µM | GI50 (UO-31 renal): > 100 µM | TGI (UO-31 renal): > 100 µM | GI50 (NCI-H23 lung): > 76.1 µM | TGI (NCI-H23 lung): > 100 µM | GI50 (A498 renal): > 100 µM | TGI (A498 renal): > 100 µM | GI50 (HT29 colon): > 100 µM | TGI (HT29 colon): > 100 µM | GI50 (CAKI-1 renal): > 100 µM | TGI (CAKI-1 renal): > 100 µM | GI50 (HOP-62 NSCLC): > 51.9 µM | TGI (HOP-62 NSCLC): > 85.9 µM | GI50 (SN12C renal): > 100 µM | TGI (SN12C renal): > 100 µM | GI50 (MOLT-4 leukemia): 34.6 µM | TGI (MOLT-4 leukemia): > 100 µM | GI50 (MCF7 breast): > 100 µM | TGI (MCF7 breast): > 100 µM

COc1ccc(N(/C=C/C(=O)C(F)(F)F)CC(=O)c2ccc(Cl)cc2)cc1
GI50 (OVCAR-8 ovarian): 13.5 µM | TGI (OVCAR-8 ovarian): 40 µM | GI50 (UO-31 renal): 13.4 µM | TGI (UO-31 renal): 28.6 µM | GI50 (NCI-H23 lung): 15.3 µM | TGI (NCI-H23 lung): 35 µM | GI50 (A498 renal): 13.9 µM | TGI (A498 renal): 28.7 µM | GI50 (HT29 colon): 25 µM | TGI (HT29 colon): 95.6 µM | GI50 (CAKI-1 renal): 9.88 µM | TGI (CAKI-1 renal): 29.6 µM | GI50 (HOP-62 NSCLC): 16.6 µM | TGI (HOP-62 NSCLC): 35.8 µM | GI50 (SN12C renal): 11.2 µM | TGI (SN12C renal): 23.3 µM | GI50 (MOLT-4 leukemia): 15.4 µM | TGI (MOLT-4 leukemia): 55.5 µM | GI50 (MCF7 breast): 18.4 µM | TGI (MCF7 breast): > 100 µM

CC(=O)OC1CC[C@@]2(C)C(CC[C@]3(C)C2CC=C2[C@@H]4C(C)[C@H](C)CCC4(C)CCC23C)[C@@]1(C)C(=O)O (stereo partly specified)
TGI (OVCAR-8 ovarian): 70 µM | TGI (UO-31 renal): 39.9 µM | TGI (NCI-H23 lung): 51.6 µM | TGI (A498 renal): 37.2 µM | TGI (HT29 colon): 47.4 µM | TGI (CAKI-1 renal): 35.1 µM | TGI (HOP-62 NSCLC): 43.1 µM | TGI (SN12C renal): 53.2 µM | TGI (MOLT-4 leukemia): 69.6 µM | TGI (MCF7 breast): 25.8 µM

C#COc1cccc(Nc2ncnc3cc(NC(=O)[C@H](C)Cl)ccc23)c1
GI50 (OVCAR-8 ovarian): 4.5 µM | TGI (OVCAR-8 ovarian): > 62.5 µM | GI50 (UO-31 renal): 7.94 µM | TGI (UO-31 renal): > 62.5 µM | GI50 (NCI-H23 lung): 7.66 µM | TGI (NCI-H23 lung): > 62.5 µM | GI50 (A498 renal): 1.73 µM | TGI (A498 renal): 34.5 µM | GI50 (HT29 colon): 2.21 µM | TGI (HT29 colon): > 62.5 µM | GI50 (CAKI-1 renal): 2.95 µM | TGI (CAKI-1 renal): > 62.5 µM | GI50 (HOP-62 NSCLC): 6.35 µM | TGI (HOP-62 NSCLC): > 62.5 µM | GI50 (SN12C renal): 3.69 µM | TGI (SN12C renal): > 62.5 µM | GI50 (MOLT-4 leukemia): 2.42 µM | TGI (MOLT-4 leukemia): > 62.5 µM | GI50 (MCF7 breast): 6.08 µM | TGI (MCF7 breast): > 62.5 µM

c1ccc([As]=[As]c2ccccc2)cc1 (stereo unspecified)
GI50 (OVCAR-8 ovarian): 1.44 µM | TGI (OVCAR-8 ovarian): 3.69 µM | GI50 (UO-31 renal): 0.973 µM | TGI (UO-31 renal): 2.39 µM | GI50 (A498 renal): 0.668 µM | TGI (A498 renal): 2.34 µM | GI50 (HT29 colon): 1.74 µM | TGI (HT29 colon): 3.61 µM | GI50 (CAKI-1 renal): 1.31 µM | TGI (CAKI-1 renal): 3.22 µM | GI50 (HOP-62 NSCLC): 1.78 µM | TGI (HOP-62 NSCLC): 3.33 µM | GI50 (SN12C renal): 1.21 µM | TGI (SN12C renal): 3.07 µM | GI50 (MOLT-4 leukemia): 1.01 µM | TGI (MOLT-4 leukemia): 4.17 µM | GI50 (MCF7 breast): 0.251 µM | TGI (MCF7 breast): 1.07 µM

CSCCCNC(=O)c1csc(-c2csc(CCNC(=O)CNC(=O)CNC(=O)OC(C)(C)C)n2)n1
TGI (OVCAR-8 ovarian): > 100 µM | TGI (UO-31 renal): > 100 µM | TGI (NCI-H23 lung): > 100 µM | TGI (A498 renal): > 100 µM | TGI (HT29 colon): > 100 µM | TGI (CAKI-1 renal): > 100 µM | TGI (HOP-62 NSCLC): > 100 µM | TGI (SN12C renal): > 100 µM | TGI (MOLT-4 leukemia): > 100 µM | TGI (MCF7 breast): > 100 µM

COc1cccc(C2C3=C(COC3=O)N(CCO)c3cc4c(cc32)OCO4)c1 (stereo unspecified)
GI50 (OVCAR-8 ovarian): 1.19 µM | TGI (OVCAR-8 ovarian): > 50 µM | GI50 (UO-31 renal): 0.297 µM | TGI (UO-31 renal): > 50 µM | GI50 (NCI-H23 lung): 0.589 µM | TGI (NCI-H23 lung): > 14.2 µM | GI50 (A498 renal): 0.263 µM | TGI (A498 renal): 5.1 µM | GI50 (HT29 colon): 0.154 µM | TGI (HT29 colon): 1.58 µM | GI50 (CAKI-1 renal): 0.449 µM | TGI (CAKI-1 renal): > 50 µM | GI50 (HOP-62 NSCLC): 0.598 µM | TGI (HOP-62 NSCLC): > 50 µM | TGI (SN12C renal): > 50 µM | GI50 (MOLT-4 leukemia): 0.315 µM | TGI (MOLT-4 leukemia): > 16.7 µM | GI50 (MCF7 breast): 0.185 µM | TGI (MCF7 breast): > 50 µM

Cc1c(C(N)=O)sc2c1c(=O)n(Cc1ccccc1)c1nnc(-c3ccc(Br)cc3)n21
GI50 (OVCAR-8 ovarian): 2.21 µM | TGI (OVCAR-8 ovarian): 15 µM | GI50 (UO-31 renal): 1.4 µM | TGI (UO-31 renal): 11.7 µM | GI50 (NCI-H23 lung): 3.11 µM | TGI (NCI-H23 lung): 15.2 µM | GI50 (A498 renal): 2.3 µM | TGI (A498 renal): 12.7 µM | GI50 (HT29 colon): 2.32 µM | TGI (HT29 colon): 13.4 µM | GI50 (CAKI-1 renal): 0.431 µM | TGI (CAKI-1 renal): 6.96 µM | GI50 (HOP-62 NSCLC): 1.38 µM | TGI (HOP-62 NSCLC): 14.4 µM | GI50 (SN12C renal): 2.36 µM | TGI (SN12C renal): 14.1 µM | GI50 (MOLT-4 leukemia): 1.64 µM | TGI (MOLT-4 leukemia): 17.3 µM | GI50 (MCF7 breast): 3.4 µM | TGI (MCF7 breast): 14.6 µM

N#CN1CC[C@H](C(=O)Nc2cc3cc(C(N)=O)ccc3cn2)C1
GI50 (OVCAR-8 ovarian): 0.0993 µM | TGI (OVCAR-8 ovarian): > 46.3 µM | GI50 (UO-31 renal): 0.107 µM | TGI (UO-31 renal): 0.518 µM | GI50 (NCI-H23 lung): 0.13 µM | TGI (NCI-H23 lung): 2.05 µM | GI50 (A498 renal): 0.0765 µM | TGI (A498 renal): 0.31 µM | GI50 (HT29 colon): 0.144 µM | TGI (HT29 colon): 1.16 µM | GI50 (CAKI-1 renal): 0.487 µM | TGI (CAKI-1 renal): > 100 µM | GI50 (HOP-62 NSCLC): 0.172 µM | TGI (HOP-62 NSCLC): 3.5 µM | GI50 (SN12C renal): 0.117 µM | TGI (SN12C renal): 46.7 µM | GI50 (MOLT-4 leukemia): 0.0488 µM | GI50 (MCF7 breast): 0.0214 µM | TGI (MCF7 breast): > 100 µM
